# Results as given in patent US20250108119A1, “NOVEL STEROID PAYLOADS, STEROID LINKERS, ADCs CONTAINING AND USE THEREOF” (IMMUNEXT, INC., priority 2021, published 2025).
# Entries after “also recorded” stand apart in the source; their conditions may differ.
# T1: human VISTA on cells (human, UniProt Q9H7M9 33-311)
# T1 sequence: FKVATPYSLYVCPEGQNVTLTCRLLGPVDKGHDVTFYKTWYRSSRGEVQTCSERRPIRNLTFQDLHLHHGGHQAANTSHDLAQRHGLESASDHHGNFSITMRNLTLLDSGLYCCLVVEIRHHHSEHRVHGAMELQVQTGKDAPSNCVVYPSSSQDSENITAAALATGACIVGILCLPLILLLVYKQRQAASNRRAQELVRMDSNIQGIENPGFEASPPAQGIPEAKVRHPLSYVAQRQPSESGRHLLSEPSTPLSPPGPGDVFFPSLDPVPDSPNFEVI
# T2: hIX50 (human VISTA ECD, produced at Aragen Bioscience) (human, UniProt Q9H7M9 33-194, biotinylated in the pH ELISA (sites not given))
# T2 construct: also called hINX50; soluble VISTA
# T2 sequence: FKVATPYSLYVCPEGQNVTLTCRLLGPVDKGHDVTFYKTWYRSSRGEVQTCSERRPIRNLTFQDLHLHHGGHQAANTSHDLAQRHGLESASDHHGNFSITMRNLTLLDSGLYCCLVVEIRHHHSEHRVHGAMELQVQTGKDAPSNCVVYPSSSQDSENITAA
# B1: INX201J (other)
# VH: QVQLVQSGAEVKKPGASVKVSCKASGYTFANYLIGWVRQAPGQRLEWMGDIYPGGGFISYNEKFKGRVTITRDTSASTAYMELSSLRSEDTAVYYCARRFDYGGYFFDYWGQGTLVTVSS
# VL: DIVMTQSPLSLPVTPGEPASISCRSSQSIVHSNGNIYLEWYLQKPGQSPQLLIYKVSNRFSGVPDRFSGSGSGTDFTLKISRVEAEDVGVYYCFQGSHVPWTFGQGTKLEIK
# modifications: linker/payload INX J on the interchain disulfide cysteines; linker/payload INX J (protease sensitive linker, budesonide analog INX J-2) on the interchain disulfide cysteines, DAR 8.0
# B2: INX200 (antibody, human IgG1, V domains shown)
# VH: QVQLVQSGAEVKKPGASVKVSCKASGYTFANYLIGWVRQAPGQRLEWMGDIYPGGGFISYNEKFKGRVTITRDTSASTAYMELSSLRSEDTAVYYCARRFDYGGYFFDYWGQGTLVTVSS
# VL: DIVMTQSPLSLPVTPGEPASISCRSSQSIVHSNGNIYLEWYLQKPGQSPQLLIYKVSNRFSGVPDRFSGSGSGTDFTLKISRVEAEDVGVYYCFQGSHVPWTFGQGTKLEIK
# notes: also called humanized anti-human VISTA antibody on a human IgG1/kappa backbone with L234A/L235A silencing mutations
# Tests used:
# [1] = test system: peritoneal resident macrophages (PRM); test: In vivo treatment/ex vivo PRM activation, TNFα and IL-6 in supernatant; design: species or system hVISTA mice; details: linker/payloads as anti-VISTA conjugates
# Procedure: Based thereon we developed a model to allow us to evaluate long-term anti-inflammatory impact of ADC on specific target populations, such as PRMs. […] In the absence of GC treatment, after 2h PRMs become highly activated as shown by increases in cytokine production. […] The objective of these studies was to evaluate the efficacy and pharmacodynamic range of INX human VISTA antibodies conjugated to a glucocorticoid payload as compared to free Dex.
# After euthanasia, mice were injected in the peritoneal cavity with 7 ml of PBS/0.5% BSA/2 mM EDTA. After a brief massage of the peritoneum, a small incision was performed and the peritoneal lavage collected. PRM were isolated using negative selection (Miltenyi kit, ref 130-110-434). Spleen were dissected and dissociated mechanically; monocytes were isolated using […] (Stem Cell, EasySep™ Mouse CD11b Positive Selection Kit II).
# PRMs were resuspended in RPMI 1640 with 10% FBS, 10 mM Hepes, Penicillin/Streptomycin and glutamine and 100,000 cells were plated per well in a 96-well tissue culture plate. Supernatants were collected at 2 and 24h post plating and stored at −80° C. […]
# • BioLegend (cat #430904) ELISA MAX Deluxe Set Mouse TNF-α • BioLegend (cat #431304) ELISA MAX Deluxe Set Mouse IL-6
# ELISAs were conducted following the manufacturer's included protocol.
# human PBMC [2] = test: Identification and quantification of released payload in human PBMC (MS); format: in vitro ADME; details: 4 hrs, same antibody
# Procedure: In all the following experiments, human PBMC, isolated from 1 healthy donor per study, were treated with exemplary anti-VISTA glucocorticoid conjugates according to the invention to allow identification and quantification of the released payload.
# In the present experiments, after incubating PBMC with glucocorticoid (GC) antibody drug conjugates (ADC) for 4h, cells were harvested and assessed for both FKBP5 transcription induction via quantitative real time PCR (qPCR) as well as assessed via mass spectrometry (MS) for released payload identification and quantification.
# Isolated PBMCs were resuspended in RPMI 1640 containing 10% human AB serum, 10 mM Hepes, 1× Penicillin/Streptomycin/L-Glutamine (assay media).
# PBMCs from 1 donor were washed 2× in PBS, and then resuspended at 1×10^7/mL in media. […]
# Remaining cells for each treatment were dived into aliquots representing 50 million cells per aliquot (for metabolite quantification only one aliquot per condition was generated). […]
# Media was removed from each cell pellet with the media then set aside at −80C until it could be assessed for the concentration of effluxed payload. […]
# Briefly, pre-chilled 70% ACN (extraction buffer) was added to the PBMC pellets for extraction. […] was injected onto the LCMS (Luna C18 (2) column, Thermo Scientific Q Exactive Hybrid Quadrupole Orbitrap) and resulting masses assessed. […]
# human PBMC [3] = test: Cytokine production (IL-1β, IL-6) at 24 hr by human PBMC incubated with 1 ng/mL LPS; format: cell-based; details: free steroid payloads, serial dilutions, 1 ng/mL LPS, 24 hr
# Outline: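 Human PBMC were stimulated with 1 ng/mL LPS together with serial dilutions of steroid payloads or glucocorticoid conjugates, spanning up to 8,000 nM down to 0.032 nM depending on the series. IL-1β and IL-6 were measured at 24 hr from technical duplicates, with 1-2 donors. Values above the ULOQ were extrapolated.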
# [4] = test system: LPS stimulated human PBMCs; test: LPS stimulated human PBMC, IL-1β and IL-6 ELISA; format: cell-based
# Outline: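 Human PBMC (1-2 healthy donors), 150,000 cells/well, treated with test agents at 1,000 nM down to 1 nM or 0.2 nM, in duplicate. LPS at 1 ng/ml added immediately after free payload or 4 h after conjugates; IL-1β and IL-6 in supernatants measured by ELISA.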
# FKBP5 = FKBP5 transcription in isolated human monocytes, B cells and Tregs; format: cell-based; details: Experiment 3: 20 nM payload, 2 donors
# Text: Monocytes or B cells were isolated from healthy donor blood samples and treated with free steroid, anti-VISTA conjugated steroid, or conjugated isotype control. RNA was isolated, and change in FKBP5 transcript level assessed by qPCR.
# The various immune populations were isolated using different cell isolation kits and following manufacturer instructions: • EasySep Human monocyte enrichment kit without CD16 depletion (StemCell cat #19058) • Pan B cell isolation kit, human (Miltenyi Biotec, 130-101-638). • EasySep™ Human CD4+CD127 low CD49d-regulatory T cell enrichment Kit (StemCell cat #19232)
# Monocytes, B cells or Tregs were plated (from single donors) at 2×10^6 cells per well in a 12-well plate in RPMI, 10% human AB serum, 10 mM Hepes, 1× Penicillin/Streptomycin/Glutamine.
# For single dose experiments, cells were treated with 20 nM free J payload or INX-SM-3 payload or the molar payload equivalent of huIgG1si J, INX201J or INX231P (the linked form of INX-SM-3). […]
# After one wash with PBS, RNA was isolated from cell pellets using either the RNeasy Plus Mini kit (Qiagen, PN: 74136) or NucleoSpin RNA Plus (Macherey-Nagel #740984.250). […] RNA concentration was assessed by UV spectroscopy using a Nanodrop 2000. […]
# Quantitative Real-Time PCR was done using Taqman master mix 2× kit (#4369016) and run on a QuantStudio3 from Applied Biosystem. […]
# [5] = molecular target: CD163 on human blood cells (human) (UniProt Q86VB7); test: flow cytometry, AF647-labelled antibody, bead-calibrated; CD14+ monocytes, human PBMC, n=5 donors, mean±SD
# [6] = molecular target: CD163 on human blood cells (human) (UniProt Q86VB7); test: flow cytometry, AF647-labelled antibody, bead-calibrated; CD14+ monocytes, human whole blood, n=3 donors, mean±SD
# human VISTA on cells [7] = molecular target: T1, human VISTA on cells; test: flow cytometry, AF488-labelled antibody on CD14+ monocytes of human PBMC, MFI normalised to INX200 at t=0
# human VISTA on cells [8] = molecular target: T1, human VISTA on cells; test: cell-based or functional assay
# [9] = molecular target: T2, hIX50 (human VISTA ECD, produced at …); test: ELISA: hIX50 coated at 1 ug/mL; antibody titrated in PBS/Tween/BSA; mouse anti-human kappa-HRP/TMB; OD 450 nm.
# [10] = molecular target: T2, hIX50 (human VISTA ECD, produced at …); test: ELISA at pH 7.5: INX200 coated at 1 ug/mL; biotinylated hIX50 titrated at 0.001-1000 ng/mL; streptavidin-HRP/TMB; OD 450 nm. The value is a concentration of hIX50.
# Chain of CD163 on human blood cells (human) (Q86VB7 42-1156): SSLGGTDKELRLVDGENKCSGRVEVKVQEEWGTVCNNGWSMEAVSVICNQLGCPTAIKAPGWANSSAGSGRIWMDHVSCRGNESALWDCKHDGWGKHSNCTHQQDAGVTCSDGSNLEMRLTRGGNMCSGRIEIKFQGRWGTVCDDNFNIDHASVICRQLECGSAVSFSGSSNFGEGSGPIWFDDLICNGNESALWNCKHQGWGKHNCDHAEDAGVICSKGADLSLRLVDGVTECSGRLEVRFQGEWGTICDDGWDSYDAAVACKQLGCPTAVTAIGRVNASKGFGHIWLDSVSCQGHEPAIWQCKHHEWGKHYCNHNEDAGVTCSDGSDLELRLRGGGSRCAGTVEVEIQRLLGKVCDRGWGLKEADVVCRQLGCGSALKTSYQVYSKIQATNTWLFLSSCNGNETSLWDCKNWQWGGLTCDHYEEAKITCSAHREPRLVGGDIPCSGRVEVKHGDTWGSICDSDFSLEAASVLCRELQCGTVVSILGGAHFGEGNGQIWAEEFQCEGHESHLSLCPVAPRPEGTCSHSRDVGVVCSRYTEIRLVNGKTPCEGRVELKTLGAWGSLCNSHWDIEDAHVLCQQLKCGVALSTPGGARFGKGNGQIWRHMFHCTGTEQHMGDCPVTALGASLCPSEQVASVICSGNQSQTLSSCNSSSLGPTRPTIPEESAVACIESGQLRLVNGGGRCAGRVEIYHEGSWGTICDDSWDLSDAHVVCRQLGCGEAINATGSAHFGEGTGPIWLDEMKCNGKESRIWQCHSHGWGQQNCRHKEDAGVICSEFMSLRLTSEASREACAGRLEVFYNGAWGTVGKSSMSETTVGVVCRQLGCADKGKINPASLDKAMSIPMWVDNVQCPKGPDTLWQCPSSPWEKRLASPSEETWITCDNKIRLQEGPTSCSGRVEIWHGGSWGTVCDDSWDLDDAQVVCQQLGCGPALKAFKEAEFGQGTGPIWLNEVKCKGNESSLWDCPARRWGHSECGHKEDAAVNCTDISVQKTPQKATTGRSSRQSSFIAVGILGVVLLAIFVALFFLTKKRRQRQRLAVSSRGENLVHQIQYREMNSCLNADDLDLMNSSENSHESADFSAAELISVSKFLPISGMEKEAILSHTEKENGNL
molecule,measurement,setting,value
"C[C@]12C=CC(=O)C=C1CC[C@@H]1[C@@H]2[C@@H](O)C[C@@]2(C)[C@H]1C[C@H]1O[C@@H](c3ccc(CC45CC(NC(=O)[C@H](CCC(=O)O)NC(=O)CNC(=O)CBr)(C4)C5)cc3)O[C@]12C(=O)CO [INX P, (S)-4-(2-(2-bromoacetamido)acetamido)-5-((3-(4-((6aR,6bS,7S,8aS,8bS,10R,11aR,12aS,12bS)-7-hydroxy-8b-(2-hydroxyacetyl)-6a,8a-dimethyl-4-oxo-2,4,6a,6b,7,8,8a,8b,11a,12,12a,12b-dodecahydro-1H-naphtho[2′,1′:4,5]indeno[1,2-d][1,3]dioxol-10-yl)benzyl)bicycle[1.1.1]pentan-1-yl)amino)-5-oxopentanoic acid]",potency in PRM cytokine model when dosed 7 days early (conclusions),[1],show similar potency when dosed 7 days early
same,released payload relative to INX J / INX231J,human PBMC [2],~3 ×
"C[C@]12C=CC(=O)C=C1CC[C@@H]1[C@@H]2[C@@H](O)C[C@@]2(C)[C@H]1C[C@H]1O[C@@H](c3ccc(CC45CC(N)(C4)C5)cc3)O[C@]12C(=O)CO [INX-SM-3, (6aR,6bS,7S,8aS,8bS,10R,11aR,12aS,12bS)-10-(4-((3-aminobicyclo[1.1.1]pentan-1-yl)methyl)phenyl)-7-hydroxy-8b-(2-hydroxyacetyl)-6a,8a-dimethyl-1,2,6a,6b,7,8,8a,8b,11a,12,12a,12b-dodecahydro-4H-naphtho[2′,1′:4,5]indeno[1,2-d][1,3]dioxol-4-one]",inhibition of IL-1β production,human PBMC [3],inhibit; also recorded: robust inhibition
same,inhibition of IL-6 production,human PBMC [3],inhibit
same,inhibition of IL-1β and IL-6 production,"[4]; Experiment 1: free payload 1000-1 nM, 1 ng/ml LPS, 24 hr, n=1 donor",inhibit both IL-1β and IL-6 production; also recorded: the most potent compound among these three
same,inhibition of IL-1β production,"[4]; Experiment 2: free payload 1000-1 nM, 24 hr, n=1 donor",show inhibition in IL-1β production; also recorded: again the most potent compound among these compounds tested
same,inhibition of IL-1β production,[4]; Experiment 8: free payload 1000-0.5 nM,robust inhibition in IL-1B production
same,FKBP5 transcription in Tregs,FKBP5,lead to increased FKBP5 transcription
CD163 Alexa Fluor 647 clone GHI/61 (BioLegend) (antibody),antibody binding capacity (ABC) (ABC (molecules per cell)),[5],36700
same,antibody binding capacity (ABC) (ABC (molecules per cell)),[6],13100
Human IgG1si (antibody),"nonspecific signal at 0 min relative to INX200 (MFI, percent)",human VISTA on cells [7],5.9%
B1,"FKBP5 transcription (qRT-PCR) in isolated human Tregs, 20 nM payload, against conjugated isotype control",human VISTA on cells [8],2.1 fold
B2,EC50 (read off the curve),[9],~8 ng/mL
same,EC50 (read off the curve),[10],~0.7 ng/mL
